Results: US7202280B2, “Methods for the treatment and prevention of pancreatitis and for induction of liver regeneration” (priority 2002, dated 2007)

System: syngenic and metallothionein-SSAT mice
Test: Hepatic, pancreatic and renal polyamine concentration in syngenic and metallothionein-SSAT mice after analogue
Format: in vivo, mouse
Details: 24 h before sacrifice
Experimental: α-methylspermidine, Bis-α-methylspermine and α-methylspermine were administered in saline. […] The data are expressed as means ±S.D. For statistical analysis, the two-tailed Student's t test was used.

[1] = Tg (transgenic) mice, 12.5 mg/kg
[2] = Tg (transgenic) mice, 37.5 mg/kg

For `CC(N)CCNCCCCNCCCN` (stereo not drawn) [α-methylspermine, 1-methylspermine], the “pancreatic polyamine concentration, Spermine” value (Sg (syngenic) mice, 50 mg/kg) was 811.45 pmoles/mg tissue wet weight, the “renal concentration, α-Methylspermine” value (Sg (syngenic) mice, 50 mg/kg) was 263.69 ± 49.92 pmoles/mg tissue wet weight and the “renal polyamine concentration, N^1-Acetylspermidine” value (Sg (syngenic) mice, 50 mg/kg) was 48.23 pmoles/mg tissue wet weight. The “renal polyamine concentration, N^8-Acetylspermidine” value (Sg (syngenic) mice, 50 mg/kg) was 21.09 pmoles/mg tissue wet weight, the “renal polyamine concentration, Putrescine” value (Sg (syngenic) mice, 50 mg/kg) was 160.04 pmoles/mg tissue wet weight and the “renal polyamine concentration, Spermidine” value (Sg (syngenic) mice, 50 mg/kg) was 193.19 pmoles/mg tissue wet weight. The “renal polyamine concentration, Spermine” value (Sg (syngenic) mice, 50 mg/kg) was 258.42 pmoles/mg tissue wet weight, the “hepatic concentration, α-Methylspermine” value [1] was 138.89 pmoles/mg tissue wet weight and the “hepatic polyamine concentration, N^1-Acetylspermidine” value [1] was 242.81 pmoles/mg tissue wet weight. For the same compound, the “hepatic polyamine concentration, Putrescine” value [1] was 857.28 pmoles/mg tissue wet weight, the “hepatic polyamine concentration, Spermidine” value [1] was 717.42 pmoles/mg tissue wet weight and the “hepatic polyamine concentration, Spermine” value [1] was 62.74 pmoles/mg tissue wet weight. The “pancreatic concentration, α-Methylspermine” value (“pancreatic concentration” for short) [1] was 132.85 ± 26.34 pmoles/mg tissue wet weight, the “pancreatic polyamine concentration, N^1-Acetylspermidine” value [1] was 154.67 pmoles/mg tissue wet weight and the “pancreatic polyamine concentration, Putrescine” value [1] was 5691.31 pmoles/mg tissue wet weight. The “pancreatic polyamine concentration, Spermidine” value [1] was 2304.42 pmoles/mg tissue wet weight, the “pancreatic polyamine concentration, Spermine” value [1] was 42.35 pmoles/mg tissue wet weight and the “renal concentration, α-Methylspermine” value [1] was 198.34 ± 10.11 pmoles/mg tissue wet weight. The “renal polyamine concentration, N^1-Acetylspermidine” value [1] was 38.55 pmoles/mg tissue wet weight, the “renal polyamine concentration, N^8-Acetylspermidine” value [1] was 24.62 pmoles/mg tissue wet weight and the “renal polyamine concentration, Putrescine” value [1] was 58.16 pmoles/mg tissue wet weight. For the same compound, the “renal polyamine concentration, Spermidine” value [1] was 247.60 pmoles/mg tissue wet weight, the “renal polyamine concentration, Spermine” value [1] was 208.03 pmoles/mg tissue wet weight and the “hepatic concentration, α-Methylspermidine” value (Tg (transgenic) mice, 25 mg/kg) was 197.89 ± 47.51 pmoles/mg tissue wet weight. The “hepatic concentration, α-Methylspermine” value (Tg (transgenic) mice, 25 mg/kg) was 145.99 pmoles/mg tissue wet weight, the “hepatic polyamine concentration, N^1-Acetylspermidine” value (Tg (transgenic) mice, 25 mg/kg) was 317.98 pmoles/mg tissue wet weight and the “hepatic polyamine concentration, N^8-Acetylspermidine” value (Tg (transgenic) mice, 25 mg/kg) was 36.49 pmoles/mg tissue wet weight. The “hepatic polyamine concentration, Putrescine” value (Tg (transgenic) mice, 25 mg/kg) was 872.47 pmoles/mg tissue wet weight, the “hepatic polyamine concentration, Spermidine” value (Tg (transgenic) mice, 25 mg/kg) was 349.61 pmoles/mg tissue wet weight and the “hepatic polyamine concentration, Spermine” value (Tg (transgenic) mice, 25 mg/kg) was 49.71 pmoles/mg tissue wet weight. The “pancreatic concentration” value (Tg (transgenic) mice, 25 mg/kg) was 130.62 ± 33.84 pmoles/mg tissue wet weight, the “pancreatic polyamine concentration, N^1-Acetylspermidine” value (Tg (transgenic) mice, 25 mg/kg) was 327.88 pmoles/mg tissue wet weight and the “pancreatic polyamine concentration, Putrescine” value (Tg (transgenic) mice, 25 mg/kg) was 5798.24 pmoles/mg tissue wet weight. For the same compound, the “pancreatic polyamine concentration, Spermidine” value (Tg (transgenic) mice, 25 mg/kg) was 2449.50 pmoles/mg tissue wet weight, the “pancreatic polyamine concentration, Spermine” value (Tg (transgenic) mice, 25 mg/kg) was 37.63 pmoles/mg tissue wet weight and the “renal concentration, α-Methylspermine” value (Tg (transgenic) mice, 25 mg/kg) was 227.76 ± 11.79 pmoles/mg tissue wet weight. The “renal polyamine concentration, N^1-Acetylspermidine” value (Tg (transgenic) mice, 25 mg/kg) was 42.95 pmoles/mg tissue wet weight, the “renal polyamine concentration, N^8-Acetylspermidine” value (Tg (transgenic) mice, 25 mg/kg) was 25.16 pmoles/mg tissue wet weight and the “renal polyamine concentration, Putrescine” value (Tg (transgenic) mice, 25 mg/kg) was 68.39 pmoles/mg tissue wet weight. The “renal polyamine concentration, Spermidine” value (Tg (transgenic) mice, 25 mg/kg) was 156.66 pmoles/mg tissue wet weight, the “renal polyamine concentration, Spermine” value (Tg (transgenic) mice, 25 mg/kg) was 209.57 pmoles/mg tissue wet weight and the “hepatic concentration, α-Methylspermidine” value [2] was 274.07 ± 18.43 pmoles/mg tissue wet weight. For the same compound, the “hepatic concentration, α-Methylspermine” value [2] was 203.75 pmoles/mg tissue wet weight, the “hepatic polyamine concentration, N^1-Acetylspermidine” value [2] was 180.48 pmoles/mg tissue wet weight and the “hepatic polyamine concentration, N^8-Acetylspermidine” value [2] was 14.15 pmoles/mg tissue wet weight. For the same compound, the “hepatic polyamine concentration, Putrescine” value [2] was 774.33 pmoles/mg tissue wet weight, the “hepatic polyamine concentration, Spermidine” value [2] was 305.70 pmoles/mg tissue wet weight and the “hepatic polyamine concentration, Spermine” value [2] was 47.47 pmoles/mg tissue wet weight. For the same compound, the “pancreatic concentration” value [2] was 105.85 ± 91.76 pmoles/mg tissue wet weight, the “pancreatic polyamine concentration, N^1-Acetylspermidine” value [2] was 176.49 pmoles/mg tissue wet weight and the “pancreatic polyamine concentration, Putrescine” value [2] was 7426.10 pmoles/mg tissue wet weight. The “pancreatic polyamine concentration, Spermidine” value [2] was 2106.09 pmoles/mg tissue wet weight, the “pancreatic polyamine concentration, Spermine” value [2] was 51.89 pmoles/mg tissue wet weight and the “renal concentration, α-Methylspermine” value [2] was 224.06 ± 27.10 pmoles/mg tissue wet weight. The “renal polyamine concentration, N^1-Acetylspermidine” value [2] was 32.33 pmoles/mg tissue wet weight, the “renal polyamine concentration, N^8-Acetylspermidine” value [2] was 24.59 pmoles/mg tissue wet weight and the “renal polyamine concentration, Putrescine” value [2] was 95.60 pmoles/mg tissue wet weight. For the same compound, the “renal polyamine concentration, Spermidine” value [2] was 233.85 pmoles/mg tissue wet weight, the “renal polyamine concentration, Spermine” value [2] was 158.91 pmoles/mg tissue wet weight and the “hepatic concentration, α-Methylspermidine” value (Tg (transgenic) mice, 50 mg/kg) was 255.30 ± 60.90 pmoles/mg tissue wet weight. The “hepatic concentration, α-Methylspermine” value (Tg (transgenic) mice, 50 mg/kg) was 168.36 pmoles/mg tissue wet weight, the “hepatic polyamine concentration, N^1-Acetylspermidine” value (Tg (transgenic) mice, 50 mg/kg) was 265.90 pmoles/mg tissue wet weight and the “hepatic polyamine concentration, Putrescine” value (Tg (transgenic) mice, 50 mg/kg) was 1057.25 pmoles/mg tissue wet weight. For the same compound, the “hepatic polyamine concentration, Spermidine” value (Tg (transgenic) mice, 50 mg/kg) was 196.67 pmoles/mg tissue wet weight, the “hepatic polyamine concentration, Spermine” value (Tg (transgenic) mice, 50 mg/kg) was 38.02 pmoles/mg tissue wet weight and the “pancreatic concentration” value (Tg (transgenic) mice, 50 mg/kg) was 185.90 ± 20.82 pmoles/mg tissue wet weight. For the same compound, the “pancreatic polyamine concentration, N^1-Acetylspermidine” value (Tg (transgenic) mice, 50 mg/kg) was 284.83 pmoles/mg tissue wet weight, the “pancreatic polyamine concentration, Putrescine” value (Tg (transgenic) mice, 50 mg/kg) was 9027.03 pmoles/mg tissue wet weight and the “pancreatic polyamine concentration, Spermidine” value (Tg (transgenic) mice, 50 mg/kg) was 3570.11 pmoles/mg tissue wet weight. For the same compound, the “pancreatic polyamine concentration, Spermine” value (Tg (transgenic) mice, 50 mg/kg) was 70.53 pmoles/mg tissue wet weight, the “renal concentration, α-Methylspermine” value (Tg (transgenic) mice, 50 mg/kg) was 319.33 ± 19.28 pmoles/mg tissue wet weight and the “renal polyamine concentration, N^1-Acetylspermidine” value (Tg (transgenic) mice, 50 mg/kg) was 44.20 pmoles/mg tissue wet weight. For the same compound, the “renal polyamine concentration, N^8-Acetylspermidine” value (Tg (transgenic) mice, 50 mg/kg) was 24.48 pmoles/mg tissue wet weight, the “renal polyamine concentration, Putrescine” value (Tg (transgenic) mice, 50 mg/kg) was 91.94 pmoles/mg tissue wet weight and the “renal polyamine concentration, Spermidine” value (Tg (transgenic) mice, 50 mg/kg) was 155.85 pmoles/mg tissue wet weight. The “renal polyamine concentration, Spermine” value (Tg (transgenic) mice, 50 mg/kg) was 205.04 pmoles/mg tissue wet weight.
